The values below come from patent US8143308B2, “Synthesis of oligo/poly(catechins) and methods of use” (University of Massachusetts Lowell, priority 2005, dated 2012).

Where only a bound is given, the exact number is not on record here.

The subject of series [1] is MCF12A (CRL#10782, normal mammary epithelial) cells. Put plainly: Cell proliferation assay, MCF12A normal mammary epithelial cells. Particulars: another experiment.
In series [2] the test system is MCF-7 (HTB-22, low metastatic breast adenocarcinoma) cells. Put plainly: Cell proliferation assay, MCF-7 low metastatic breast adenocarcinoma cells. The format is cell-based, human. The settings on record: another experiment; only at high doses effective.
The test system of series [3] is MCF-7 and MDA-MB-231 cells. The experiment in a line: Anticancer activity in vitro, summary statements for breast cancer cells. It is filed as cell-based, human. Particulars: MCF-7 and MDA-MB-231 in vitro.
The nature of series [4]: Stability of activity after dissolving in solvent.

For (−)-epigallocatechin gallate [EGCG], the “inhibition of normal MCF-12A cells (in words)” value in series [1] (5.0 μg/ml) and in series [1] (40 μg/ml) was “inhibited” throughout. Moreover, the “dose at which effective on MCF-7” value in series [2] stood at 9.2 µg/mL. Also, the “dose at which active / effective” value in series [3] was 1 to 40 µg/mL. Further, the “time to loss of activity” value in series [4] was at most 1 h.
